In US20250179032A1, “HETEROCYCLIC INHIBITORS OF GLUT9 FOR TREATMENT OF DISEASE” (HORIZON THERAPEUTICS IRELAND DAC, priority 2022, published 2025):

Molecular target: T1, H. sapiens SLC2A9 variant 2 (GLUT9B) (Homo sapiens, UniProt Q9NRM0)
T1 sequence (Q9NRM0 1-511 isoform Q9NRM0-2): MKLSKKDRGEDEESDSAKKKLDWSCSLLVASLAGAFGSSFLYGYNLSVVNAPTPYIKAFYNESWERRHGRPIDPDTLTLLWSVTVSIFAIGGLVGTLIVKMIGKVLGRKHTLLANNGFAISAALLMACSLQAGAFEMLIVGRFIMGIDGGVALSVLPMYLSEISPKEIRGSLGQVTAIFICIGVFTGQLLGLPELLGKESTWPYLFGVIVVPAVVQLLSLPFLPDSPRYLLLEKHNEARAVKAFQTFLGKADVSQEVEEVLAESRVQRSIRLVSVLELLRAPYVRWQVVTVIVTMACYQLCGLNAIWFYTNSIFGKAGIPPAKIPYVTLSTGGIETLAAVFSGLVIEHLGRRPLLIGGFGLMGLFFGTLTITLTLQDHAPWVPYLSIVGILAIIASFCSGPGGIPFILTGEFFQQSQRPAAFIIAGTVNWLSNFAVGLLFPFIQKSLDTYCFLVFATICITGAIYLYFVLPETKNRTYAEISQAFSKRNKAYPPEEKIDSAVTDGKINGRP
Test: GLUT9 functional assay: uric acid uptake in HEK293T cells, allantoin formation by MS/MS as proxy of GLUT9B inhibition
Assay type: cell-based
Conditions: 60 minute assay; HEK293T cells stably expressing GLUT9B and transiently A. oryzae uricase; uric acid 0.3 mM, 37° C.; read-out: 60 min IC50
How it was run: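 HEK293T cells stably expressing human GLUT9B and transiently expressing A. oryzae uricase, exposed across a 12-point curve to 0.3 mM uric acid (Km) in sodium gluconate buffer pH 7.4 for 15 or 60 min at 37° C. Allantoin in lysates quantified by RapidFire MS/MS (positive ion) against a matrix-matched standard curve as proxy for uptake.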

IC50 [nM]	Structure (SMILES)
< 500	COCCCc1cnc(-c2ccc(SC)cc2)c(N2CCC(C(=O)O)CC2)n1 [Compound 254, 1-(6-(3-methoxypropyl)-3-(4-(methylthio)phenyl)pyrazin-2-yl)piperidine-4-carboxylic acid]
500 to 2000	COCCCc1cnc(-c2ccc(F)c(F)c2)c(N2CCC(C(=O)O)CC2)n1 [Compound 255, 1-(3-(3,4-difluorophenyl)-6-(3-methoxypropyl)pyrazin-2-yl)piperidine-4-carboxylic acid]
